The compounds below were run against T1, human ACCβ (Homo sapiens, UniProt O00763) (assay: Radiometric ACCβ enzyme inhibition assay ([14C]NaHCO3 incorporation into malonyl-CoA)). Details: human muscle-type ACCβ expressed in HEK293 cells; saturating substrate concentrations; 37° C., 45 min.
T1 construct: The cloning of the full length human muscle-type ACCβ cDNA and expression in HEK293 cells; made in house; host or cells: HEK293 cells (ATCC CRL-1573), transfected with plasmid pRF33D
Assay type: biochemical
Description: Production and Characterization of Human ACCβ Enzyme, Its Use in ACC Activity Assays and for Inhibition Studies
The cloning of the full length human muscle-type ACCβ cDNA and expression in HEK293 cells (ATCC, # CRL-1573) was performed as follows. The ACCβ cDNA was amplified by the polymerase chain reaction (PCR) and was cloned using standard recombinant DNA techniques. The PCR reaction was performed with the Expand Long Template PCR System (Roche Molecular Biochemicals, # 1 681 8340) and 0.5 ng of cDNA from human skeletal muscle as template. The primers used for PCR amplification were designed on the basis of the published sequence of the human ACCβ cDNA isolated from a human liver cDNA library (Abul-Elheiga et al. J. Biol. Chem. 272, 10669-10677, 1997). The sequence of the forward primer ACCB1 was 5′-[…]-3′; it includes a NheI restriction cleavage site for subcloning and a Kozak translation initiation consensus sequence preceding the ATG start codon. The sequence of the reverse primer ACCB8 was 5′-[…]-3′; it includes a stop codon and a XhoI restriction cleavage site for subcloning. The amplified DNA fragment of approximately 7.4 kb was cloned into a mammalian expression vector. The resulting plasmid isolates, pRF33A, B, C, D, and E were individually transfected in human embryonic kidney 293 cells (HEK293) using a standard lipid transfection method. Cell extracts of transfected cells were prepared in a lysis buffer containing 0.4 mg/ml digitonin and enzyme activity was determined using a radiometric ACC activity assay as described below. Plasmid pRF33D gave the highest activity and was chosen for large scale transfections of HEK293 cells and enzyme purification.
Since ACC enzyme activities in crude cell lysates were very low, enrichment of ACCβ enzyme expressed in HEK293 cells was achieved by a single anion exchange chromatography step. Cell lysates were run over a 5 ml Econo Pac High Q column (Bio-Rad, # 732-0027). Bound proteins were eluted by a gradient of NaCl from 0 to 1 M in 50 mM Tris-HCl, pH 7.5, 1 mM DTT, 5% glycerol. Fractions containing high ACCβ enzyme activity were pooled and stored at −20° C.
Standard ACCβ enzyme assays, in a total volume of 100 μl, contained 50 mM HEPES-KOH, pH 7.5, 10 mM K-citrate, 10 mM MgSO4, 1 mM ATP, 0.1 mM DTT, 2% DMSO, 0.1 mg/ml fatty acid-free BSA, 0.2 mM acetyl-CoA, 2 mM KHCO3, 0.2 mM [^14C]NaHCO3 (50-60 mCi/mmol) and cell lysate or purified ACCβ enzyme. Reactions were incubated at 37° C. for 45 min. and stopped by the addition of 50 μl of 2 N HCl. Terminated reactions were incubated at 50° C. over night to evaporate non-incorporated [^14C]NaHCO3. [^14C]-labeled malonyl-CoA reaction product was quantitated by liquid scintillation counting after the addition of 20 μl of Microscint 20 (Canberra Packard, # 6013621) on a TopCount NXT microplate scintillation counter (Canberra Packard).
Inhibition of ACCβ activity was determined at saturating substrate concentrations with two-fold serial dilutions of test compounds spanning a concentration range of at least two log units. IC50 values were calculated with the GraFit software (Erithacus Software Ltd.).

T1 sequence (O00763 whole entry): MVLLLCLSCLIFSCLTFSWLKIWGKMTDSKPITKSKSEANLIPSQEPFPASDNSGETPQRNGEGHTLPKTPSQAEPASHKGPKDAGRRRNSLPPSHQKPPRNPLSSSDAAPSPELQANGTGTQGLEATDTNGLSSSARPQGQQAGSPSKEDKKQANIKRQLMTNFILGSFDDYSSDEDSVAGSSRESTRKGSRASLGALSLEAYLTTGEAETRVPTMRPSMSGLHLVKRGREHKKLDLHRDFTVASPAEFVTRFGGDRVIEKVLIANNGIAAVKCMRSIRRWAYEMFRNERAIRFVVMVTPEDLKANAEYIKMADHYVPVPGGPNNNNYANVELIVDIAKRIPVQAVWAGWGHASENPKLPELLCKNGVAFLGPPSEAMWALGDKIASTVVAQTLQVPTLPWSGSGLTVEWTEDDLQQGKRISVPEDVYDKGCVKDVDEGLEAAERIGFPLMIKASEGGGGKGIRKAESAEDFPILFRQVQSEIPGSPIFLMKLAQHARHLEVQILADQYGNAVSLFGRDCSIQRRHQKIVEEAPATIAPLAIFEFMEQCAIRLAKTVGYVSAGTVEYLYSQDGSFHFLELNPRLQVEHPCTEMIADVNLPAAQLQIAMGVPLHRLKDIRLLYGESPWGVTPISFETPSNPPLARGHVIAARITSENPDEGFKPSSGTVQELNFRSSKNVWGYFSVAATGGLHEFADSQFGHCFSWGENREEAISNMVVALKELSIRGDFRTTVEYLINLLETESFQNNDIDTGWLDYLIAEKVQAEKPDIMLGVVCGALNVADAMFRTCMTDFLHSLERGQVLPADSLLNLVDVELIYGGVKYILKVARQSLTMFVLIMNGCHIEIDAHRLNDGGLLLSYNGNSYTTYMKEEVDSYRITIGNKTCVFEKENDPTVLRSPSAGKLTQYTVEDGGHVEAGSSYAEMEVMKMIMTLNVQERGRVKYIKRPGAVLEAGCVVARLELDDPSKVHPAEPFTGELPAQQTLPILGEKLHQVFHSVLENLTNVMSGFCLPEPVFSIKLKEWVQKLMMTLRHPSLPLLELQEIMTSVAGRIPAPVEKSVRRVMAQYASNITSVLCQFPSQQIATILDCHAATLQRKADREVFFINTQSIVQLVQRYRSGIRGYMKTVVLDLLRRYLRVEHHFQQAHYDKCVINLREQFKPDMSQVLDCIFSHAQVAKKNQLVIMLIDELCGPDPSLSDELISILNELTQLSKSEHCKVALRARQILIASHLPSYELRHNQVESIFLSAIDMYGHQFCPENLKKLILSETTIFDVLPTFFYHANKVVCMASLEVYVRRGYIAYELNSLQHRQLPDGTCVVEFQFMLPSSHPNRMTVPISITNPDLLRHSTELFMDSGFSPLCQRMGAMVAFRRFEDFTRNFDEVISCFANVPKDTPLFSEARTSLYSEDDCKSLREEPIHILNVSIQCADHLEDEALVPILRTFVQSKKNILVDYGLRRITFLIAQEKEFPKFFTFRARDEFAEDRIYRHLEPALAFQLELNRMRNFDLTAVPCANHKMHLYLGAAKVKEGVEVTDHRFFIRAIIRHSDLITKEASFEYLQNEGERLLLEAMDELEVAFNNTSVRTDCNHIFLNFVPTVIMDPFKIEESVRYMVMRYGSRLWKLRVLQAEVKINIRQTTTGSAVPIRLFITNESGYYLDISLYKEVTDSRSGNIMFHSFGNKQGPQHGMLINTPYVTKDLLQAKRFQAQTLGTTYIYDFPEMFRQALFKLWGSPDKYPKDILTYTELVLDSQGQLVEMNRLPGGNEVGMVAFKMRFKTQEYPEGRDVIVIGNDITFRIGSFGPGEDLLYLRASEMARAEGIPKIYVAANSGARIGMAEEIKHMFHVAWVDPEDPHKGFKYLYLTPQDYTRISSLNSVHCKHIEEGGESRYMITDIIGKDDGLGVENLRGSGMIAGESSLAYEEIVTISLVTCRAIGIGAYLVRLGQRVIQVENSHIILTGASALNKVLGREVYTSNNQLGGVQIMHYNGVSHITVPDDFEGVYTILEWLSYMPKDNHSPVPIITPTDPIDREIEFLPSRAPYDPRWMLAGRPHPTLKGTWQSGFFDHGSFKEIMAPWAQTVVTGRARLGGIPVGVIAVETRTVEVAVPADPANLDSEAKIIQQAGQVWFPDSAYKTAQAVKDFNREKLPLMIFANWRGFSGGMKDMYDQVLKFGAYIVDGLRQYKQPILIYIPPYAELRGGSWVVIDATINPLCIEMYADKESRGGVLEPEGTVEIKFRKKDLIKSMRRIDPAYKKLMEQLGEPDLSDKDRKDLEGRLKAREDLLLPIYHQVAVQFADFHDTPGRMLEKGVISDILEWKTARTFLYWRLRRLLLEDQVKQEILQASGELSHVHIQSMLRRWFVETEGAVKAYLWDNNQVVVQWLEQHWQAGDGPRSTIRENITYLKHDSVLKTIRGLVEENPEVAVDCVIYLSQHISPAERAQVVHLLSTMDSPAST

SMILES	IC50 [µM]
CCOc1ccc(C#Cc2ccc3c(c2)OCC(C)(C)CO3)cc1 [Example 7, 7-(4-Ethoxy-phenylethynyl)-3,3-dimethyl-3,4-dihydro-2H-benzo[b][1,4]dioxepine]	1.44
CCCOc1ccc(C#Cc2ccc3c(c2)OCC(C)(C)CO3)cc1 [Example 21, 3,3-Dimethyl-7-(4-propoxy-phenylethynyl)-3,4-dihydro-2H-benzo[b][1,4]dioxepine]	0.01
CCOC(=O)c1ccc(OCc2ccc3c(c2)OCC(C)(C)CO3)cc1 [Example 23, 4-(3,3-Dimethyl-3,4-dihydro-2H-benzo[b][1,4]dioxepin-7-ylmethoxy)-benzoic acid ethyl ester]	0.25
CC1(C)COc2ccc(C#Cc3ccc4c(c3)CCO4)cc2OC1 [Example 9, 7-(2,3-Dihydro-benzofuran-5-ylethynyl)-3,3-dimethyl-3,4-dihydro-2H-benzo[b][1,4]dioxepine]	15.1
Cn1nnc(-c2ccc(C#Cc3ccc4c(c3)OCC(C)(C)CO4)cc2)n1 [Example 14, 5-[4-(3,3-Dimethyl-3,4-dihydro-2H-benzo[b][1,4]dioxepin-7-ylethynyl)-phenyl]-2-methyl-2H-tetrazole]	11.2

Next, values leading:

IC50 [µM]	SMILES
5.41	CCOC(=O)c1ccc(C#Cc2ccc3c(c2)OCC(C)(C)CO3)cn1 [Example 13, 5-(3,3-Dimethyl-3,4-dihydro-2H-benzo[b][1,4]dioxepin-7-ylethynyl)-pyridine-2-carboxylic acid ethyl ester]
3.11	CCOC(=O)c1cccc(C#Cc2ccc3c(c2)OCC(C)(C)CO3)c1 [Example 15, 3-(3,3-Dimethyl-3,4-dihydro-2H-benzo[b][1,4]dioxepin-7-ylethynyl)-benzoic acid ethyl ester]
42.2	COc1cccc(C#Cc2ccc3c(c2)OCC(C)(C)CO3)c1 [Example 5, 7-(3-Methoxy-phenylethynyl)-3,3-dimethyl-3,4-dihydro-2H-benzo[b][1,4]dioxepine]
